Data on 9 molecules can be found in publication PMC5361735, “Characterization and mechanisms of anti-influenza virus metabolites isolated from the Vietnamese medicinal plant Polygonum chinense” (BMC Complementary and Alternative Medicine, 2017).

For data set [1], the system named is influenza viruses PR8, HK and Lee. The following applies: for inhibition of plaque formation: MOI 0.001, 3 days, crystal violet.
Procedure: MDCK cells seeded in 48-well plates were infected with the influenza viruses at an MOI of 0.001 for 1 h at 33 °C (PR8) or 35 °C (HK and Lee). Test compounds and reference antiviral compounds were serially diluted in overlay medium [MEM containing 0.5% carboxymethylcellulose (CMC; Sigma) and 2 μg/mL TPCK-trypsin]. After washing with PBS, the cells were treated with the compounds in the overlay medium for 3 days at the temperature used for virus infection. Viral plaques were counted by staining with crystal violet [20].
For data set [2], the system named is A/Puerto Rico/8/34 (H1N1, PR8). The following applies: Table 2.
In data set [3] the test system is B/Lee/40 (Lee). The following applies: for S.I. (CC50/EC50) Lee: Table 2.
Data set [4] deals with A/Hong Kong/8/68 (H3N2, HK). The following applies: for S.I. (CC50/EC50) HK: Table 2; for EC50: read-out: EC50 HK.
For another data set, the system named is PR8 virus (viral NP). In kind it is cell-based, influenza A virus.
Data set [5] relates to B/Lee/40 (Lee). The experiment in a line: microbe, parasite or virus in culture. The following applies: Influenza B virus, MDCK, 72 h, read-out: EC50 Lee.
Data set [6] concerns A/Puerto Rico/8/34 (H1N1, PR8). Description: microbe, parasite or virus in culture. The following applies: Influenza A virus, MDCK, 72 h, read-out: EC50 PR8.
Data set [7] deals with A/Hong Kong/8/68 (H3N2, HK). The experiment in a line: microbe, parasite or virus in culture. The following applies: Influenza A virus, H3N2, MDCK, 72 h, read-out: EC50 HK.
A short description of data set [8]: Cell viability (MTT) of mock-infected MDCK cells. The following applies: dog, mock-infected MDCK cells.
Another data set relates to PR8. Description: Time-of-addition plaque assay. In kind it is cell-based, influenza A virus.
For data set [9], the system named is influenza viruses PR8, HK and Lee. Description: CPE inhibition assay, results stated over all strains. In kind it is cell-based, influenza A and B viruses. The following applies: for EC50: Influenza A virus, PR8, range over the strains (and compounds named).
A short description of the next data set: in vitro. The following applies: dog.
The subject of data set [10] is MDCK cells. Description: Cell viability (MTT) of mock-infected MDCK cells. The following applies: 300 μg/mL.
For data set [11], the system named is MDCK cells. The following applies: dog, 3 days, 300 μg/mL.
Setting [12] is: CPE inhibition assay, PR8, HK and Lee.

In brackets after ≈: the same amount, converted by molar mass. Like-named read-outs stand apart in the source and are kept apart here. Where only a bound is given, the exact number is not on record here.

As to `O=c1oc2c(O)c(O)cc3c(=O)oc4c(O)c(O)cc1c4c23` [PC5, Ellagic acid], the “inhibition of plaque formation” value in [1] was “inhibited plaque formation of influenza A and B viruses in a dose-dependent manner”. Also, in data set [2], the “S.I. (CC50/EC50) PR8” value is reported as above 3.7. The “S.I. (CC50/EC50) Lee” value in the data set with B/Lee/40 (Lee) [3] is reported as above 3.8. Besides, in data set [4], the “S.I. (CC50/EC50) HK” value is above 4.8. The “effect on viral NP production/localization” value in the data set with PR8 virus (viral NP) is on record as “inhibit the early steps”. The EC50 in the data set on B/Lee/40 (Lee) [5] was 79.2 µg/mL; in data set [6], 81.1 µg/mL (≈ 268 µM); in data set [7] it was 62.4 µg/mL; in [9] (CPE inhibition assay) it was 14.7 to 81.1 µg/mL (≈ 48.6 to 268 µM). Further, the CC50 at 3 days in data set [8] is above 300 µg/mL. Also, the “effect on plaques, co-treatment” value with PR8 was “plaque reduction was more distinct”. The “effect on plaques, post-treatment” value with PR8 is recorded as “reduced viral plaque titers”. In addition, the “effect on plaques, pre-treatment” value in the data set on PR8 is reported as “reduced viral plaque titers”.

As to `CC[C@H](CC[C@@H](C)[C@H]1CC[C@H]2[C@@H]3CC=C4C[C@@H](O)CC[C@]4(C)[C@H]3CC[C@]12C)C(C)C` [PC6, β-Sitosterol], in [2], the “S.I. (CC50/EC50) PR8” value was found to be 1.1. Besides, the “S.I. (CC50/EC50) HK” value in data set [4] was found to be 1.0. In the data set “in vitro”, this molecule displayed a CC50 of 300 µg/mL (≈ 723 µM). In addition, the EC50 in the data set with B/Lee/40 (Lee) [5] was above 300 µg/mL; in [6], 282 µg/mL (≈ 679 µM); in data set [7] it was 300 µg/mL. In [9] (setting [12]), the “anti-influenza activity in words” value is “marginal or no anti-influenza activity”.

As to `O=c1c(O)c(-c2ccc(O)c(O)c2)oc2cc(O)cc(O)c12` [PC1, Quercetin], the “S.I. (CC50/EC50) Lee” value with B/Lee/40 (Lee) [3] was above 20.0. In addition, the “S.I. (CC50/EC50) HK” value in data set [4] is given as above 22.9. Further, the EC50 stood at 15 µg/mL with B/Lee/40 (Lee) [5], 12.6 µg/mL (≈ 41.7 µM) in data set [6] and 13.1 µg/mL in [7]. Besides, in data set [8], the CC50 at 3 days was above 300 µg/mL. Besides, the “cytotoxicity to MDCK cells at the highest concentration” value in the data set with MDCK cells [10] was “without cytotoxicity”.

For `CCC(CC)O[C@@H]1C=C(C(=O)O)C[C@H](N)[C@H]1NC(C)=O` [OSV-C, oseltamivir carboxylate, reference compound], the figures for the EC50 in data set [4] and in [7] were below 0.005 µM and 0.005 µM, respectively. Moreover, the CC50 at 3 days in “in vitro” is above 100 µM. Besides, the “anti-influenza activity in words” value in data set [9] (setting [12]) is recorded as “efficiently inhibited the replication of all viral strains tested”.

`O=C(O)c1cc(O)c(O)c(O)c1` [PC3, Gallic acid] gave a CC50 in the data set “in vitro” of 111 µg/mL (≈ 653 µM). In addition, in data set [7], the EC50 was 17.5 µg/mL.

For the molecule `NC(=O)c1ncn([C@@H]2O[C@H](CO)[C@@H](O)[C@H]2O)n1` [RBV, ribavirin, reference compound], the concentration giving a half-maximal response (EC50) in the data set on B/Lee/40 (Lee) [3] (read-out: EC50 Lee) worked out at 17 µM; in [4], 15.5 µM; with B/Lee/40 (Lee) [5], 26.6 µM; in data set [7] it was 20.5 µM. In data set [9], the “anti-influenza activity in words” value is “efficiently inhibited the replication of all viral strains tested”.

For `COC(=O)c1cc(O)c(O)c(O)c1` [PC7, Methyl gallate], the “cytotoxicity seen as faint crystal violet background” value in data set [1] (MDCK cells, concentrations higher than 33 μg/mL) is reported as “marginal cytotoxicity”. For the same molecule, in data set [1], the “inhibition of plaque formation” value is “inhibited plaque formation of influenza A and B viruses in a dose-dependent manner”. Moreover, the “S.I. (CC50/EC50) PR8” value in data set [2] is above 16.6. Also, the “reduction of cell viability” value in the data set on MDCK cells [11] is listed as 49%. Further, in the data set on B/Lee/40 (Lee) [3], the “S.I. (CC50/EC50) Lee” value is recorded as above 15.6. For the same molecule, the “S.I. (CC50/EC50) HK” value in [4] is reported as above 17.5. In addition, the CC50 at 3 days in “in vitro” is above 300 µg/mL. In the data set on PR8 virus (viral NP), the “effect on viral NP production/localization” value is recorded as “inhibit the early steps”. Further, the half-maximal effective concentration (EC50) with B/Lee/40 (Lee) [5] is 19.2 µg/mL; in data set [6] it was 18.1 µg/mL (≈ 98.3 µM); in [7] it was 17.1 µg/mL; in [9] (CPE inhibition assay) it was 14.7 to 81.1 µg/mL (≈ 79.8 to 440 µM). For the same molecule, in the data set on PR8, the “effect on plaques, pre-treatment” value is recorded as “no inhibition”. Further, in the data set on PR8, the “plaque reduction, co-treatment” value is “about 35%”. For the same molecule, the “reduction of viral infectivity, post-treatment” value in the data set on PR8 is recorded as 15%.

As to `O=C(O)/C=C/c1ccc(O)c(O)c1` [PC8, Caffeic acid], the “inhibition of plaque formation” value in data set [1] was “inhibited plaque formation of influenza A and B viruses in a dose-dependent manner”. In addition, in data set [2], the “S.I. (CC50/EC50) PR8” value is recorded as above 7.9. Further, the “S.I. (CC50/EC50) Lee” value with B/Lee/40 (Lee) [3] is above 20.4. The “S.I. (CC50/EC50) HK” value in [4] was above 9.4. In addition, in the data set with PR8 virus (viral NP), the “effect on viral NP production/localization” value is on record as “did not affect NP signal intensity or its localization”. The EC50 with B/Lee/40 (Lee) [5] was 14.7 µg/mL; in [6], 37.8 µg/mL (≈ 210 µM); in data set [7], 32.1 µg/mL; in data set [9] (CPE inhibition assay) it was 14.7 to 81.1 µg/mL (≈ 81.6 to 450 µM). The molecule further had a CC50 at 3 days in data set [8] above 300 µg/mL. For the same molecule, in the data set with MDCK cells [10], the “cytotoxicity to MDCK cells at the highest concentration” value is recorded as “without cytotoxicity”. Besides, in the data set on PR8, the “effect on plaques, co-treatment” value is listed as “barely showed the efficacy at the maximum concentration”. For the same molecule, in the data set with PR8, the “effect on plaques, post-treatment” value is “no significant antiviral activity”. Also, the “effect on plaques, pre-treatment” value with PR8 is “no significant antiviral activity”.

For the molecule `COC(=O)c1ccc(O)c(O)c1` [PC2, Protocatechuic acid methyl ester], the “S.I. (CC50/EC50) Lee” value in the data set with B/Lee/40 (Lee) [3] worked out at 2.2. In “in vitro”, this molecule registered a CC50 at 3 days of 24.1 µg/mL. Further, the 50% effective concentration (EC50) in the data set with B/Lee/40 (Lee) [5] is 11.1 µg/mL; in [6], above 24.1 µg/mL; in data set [7], above 24.1 µg/mL.
